The record followed here is PubChem BioAssay AID328 (DTP/NCI, 2004).

“And” between values parts separate entries of the source, which are not always exact repeats. Identical values can stand only once. Inconclusive results and toxic doses are left out.

The test has as its system BDF1 mice, P388 leukemia ip, median survival T/C. The test can be described thus: NCI In Vivo Anticancer Drug Screen. Data for tumor model P388 Leukemia (intraperitoneal) in B6D2F1 (BDF1) mice. The conditions noted are these: endpoint: median survival time, higher = longer survival. The essentials:
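T/C = treated-group survival ÷ vehicle-control survival; tumour transplanted into mice before dosing.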

Setting [1] is: dose: 50.0 mg/kg/injection, schedule: Q04DX003 (ip), vehicle: saline with Tween-80.
The mark [2] stands for this setting: dose: 100.0 mg/kg/injection, schedule: Q01DX009 (ip), vehicle: saline with Tween-80.
Where [3] appears, read: dose: 100.0 mg/kg/injection, schedule: Q04DX003 (ip), vehicle: saline with Tween-80.
Where [4] appears, read: dose: 200.0 mg/kg/injection, schedule: Q01DX009 (ip), vehicle: saline with Tween-80.
Setting [5] is: dose: 200.0 mg/kg/injection, schedule: Q04DX003 (ip), vehicle: saline with Tween-80.
The mark [6] stands for this setting: dose: 400.0 mg/kg/injection, schedule: Q01DX009 (ip), vehicle: saline with Tween-80.
Setting [7] is: dose: 400.0 mg/kg/injection, schedule: Q04DX003 (ip), vehicle: saline with Tween-80.

Take `O/N=c1/cc(-c2ccc(Cl)cc2)ss1`: the T/C reads like this: (dose: 25.0 mg/kg/injection, schedule: Q01DX009 (ip), vehicle: saline) 114 % of control; (dose: 50.0 mg/kg/injection, schedule: Q04DX003 (ip), vehicle: saline) 100 % of control and 113 % of control; (dose: 100.0 mg/kg/injection, schedule: Q01DX009 (ip), vehicle: saline) 106 % of control; (dose: 100.0 mg/kg/injection, schedule: Q04DX003 (ip), vehicle: saline) 93 % of control and 106 % of control and 110 % of control; (dose: 200.0 mg/kg/injection, schedule: Q01DX009 (ip), vehicle: saline) 92 % of control; (dose: 200.0 mg/kg/injection, schedule: Q04DX003 (ip), vehicle: saline) 96 % of control and 102 % of control. Further, the T/C is 96 % of control (dose: 400.0 mg/kg/injection, schedule: Q01DX009 (ip), vehicle: saline); 102 % of control (dose: 400.0 mg/kg/injection, schedule: Q04DX003 (ip), vehicle: saline); 90 % of control (dose: 600.0 mg/kg/injection, schedule: Q04DX003 (ip), vehicle: saline).
Take `CC(=O)Nc1ccc(OC(C)=O)cc1C=O`: the T/C (dose: 50.0 mg/kg/injection, schedule: Q04DX002 (ip), vehicle: saline with Tween-80) was 111 % of control; the T/C (dose: 100.0 mg/kg/injection, schedule: Q04DX002 (ip), vehicle: saline with Tween-80) is 98 % of control; the T/C (dose: 200.0 mg/kg/injection, schedule: Q04DX002 (ip), vehicle: saline with Tween-80) is 89 % of control.
Regarding `COc1cc2c(cc1OC)C(OC)N(C)c1c-2ccc2cc3c(cc12)OCO3` (stereo unspecified), the T/C by setting is: (dose: 1.1 mg/kg/injection, schedule: Q01DX009 (ip), vehicle: water) 118 % of control; (dose: 1.4 mg/kg/injection, schedule: Q04DX003 (ip), vehicle: saline with Tween-80) 122 % of control; (dose: 1.46 mg/kg/injection, schedule: Q01DX009 (ip), vehicle: saline with Tween-80) 160 % of control; (dose: 2.2 mg/kg/injection, schedule: Q01DX009 (ip), vehicle: saline with Tween-80) 151 % of control; (dose: 2.5 mg/kg/injection, schedule: Q01DX009 (ip), vehicle: water) 181 % of control; (dose: 3.3 mg/kg/injection, schedule: Q01DX009 (ip), vehicle: saline with Tween-80) 169 % of control. The T/C was 167 % of control (dose: 4.4 mg/kg/injection, schedule: Q01DX009 (ip), vehicle: saline with Tween-80); 176 % of control (dose: 5.0 mg/kg/injection, schedule: Q01DX009 (ip), vehicle: saline with Tween-80); 159 % of control and 190 % of control (dose: 5.0 mg/kg/injection, schedule: Q01DX009 (ip), vehicle: water); 150 % of control (dose: 5.0 mg/kg/injection, schedule: Q04DX003 (ip), vehicle: saline with Tween-80); 216 % of control (dose: 6.6 mg/kg/injection, schedule: Q01DX009 (ip), vehicle: saline with Tween-80); 191 % of control and 218 % of control (dose: 10.0 mg/kg/injection, schedule: Q01DX009 (ip), vehicle: saline with Tween-80). Moreover, the T/C reads like this: (dose: 10.0 mg/kg/injection, schedule: Q01DX009 (ip), vehicle: saline) 170 % of control; (dose: 10.0 mg/kg/injection, schedule: Q01DX009 (ip), vehicle: water) 177 % of control and 200 % of control; (dose: 10.0 mg/kg/injection, schedule: Q04DX003 (ip), vehicle: other) 163 % of control; (dose: 14.6 mg/kg/injection, schedule: Q04DX003 (ip), vehicle: saline with Tween-80) 168 % of control; (dose: 15.0 mg/kg/injection, schedule: Q01DX009 (ip), vehicle: saline with Tween-80) 188 % of control; (dose: 15.0 mg/kg/injection, schedule: Q04DX003 (ip), vehicle: other) 200 % of control. The T/C was 220 % of control and 165 % of control (dose: 20.0 mg/kg/injection, schedule: Q01DX009 (ip), vehicle: saline with Tween-80); 195 % of control (dose: 20.0 mg/kg/injection, schedule: Q01DX009 (ip), vehicle: saline); 195 % of control and 220 % of control (dose: 20.0 mg/kg/injection, schedule: Q01DX009 (ip), vehicle: water); 165 % of control (dose: 20.0 mg/kg/injection, schedule: Q04DX003 (ip), vehicle: saline); 168 % of control (dose: 22.0 mg/kg/injection, schedule: Q04DX003 (ip), vehicle: saline with Tween-80); 263 % of control (dose: 33.0 mg/kg/injection, schedule: Q04DX003 (ip), vehicle: saline with Tween-80). Also, the T/C (dose: 40.0 mg/kg/injection, schedule: Q01DX009 (ip), vehicle: saline with Tween-80) was 160 % of control and 175 % of control; the T/C (dose: 40.0 mg/kg/injection, schedule: Q01DX009 (ip), vehicle: saline) is 195 % of control; the T/C (dose: 40.0 mg/kg/injection, schedule: Q01DX009 (ip), vehicle: water) was 186 % of control and 200 % of control; the T/C (dose: 40.0 mg/kg/injection, schedule: Q04DX003 (ip), vehicle: saline) is 170 % of control; the T/C (dose: 50.0 mg/kg/injection, schedule: Q01DX009 (ip), vehicle: Klucel (hydroxypropylcellulose) (HPC)) is 205 % of control; the T/C (dose: 50.0 mg/kg/injection, schedule: Q04DX002 (ip), vehicle: Klucel (hydroxypropylcellulose) (HPC)) is 106 % of control. In addition, the T/C reads like this: under setting [1], 231 % of control; (dose: 52.0 mg/kg/injection, schedule: Q01DX009 (ip), vehicle: saline with Tween-80) 181 % of control; (dose: 80.0 mg/kg/injection, schedule: Q01DX009 (ip), vehicle: saline) 180 % of control; (dose: 80.0 mg/kg/injection, schedule: Q01DX009 (ip), vehicle: water) 109 % of control; (dose: 80.0 mg/kg/injection, schedule: Q04DX003 (ip), vehicle: saline) 180 % of control; (dose: 100.0 mg/kg/injection, schedule: Q04DX002 (ip), vehicle: Klucel (hydroxypropylcellulose) (HPC)) 172 % of control. For the same compound, the T/C runs as follows: (dose: 120.0 mg/kg/injection, schedule: Q01DX009 (ip), vehicle: water) 113 % of control; (dose: 180.0 mg/kg/injection, schedule: Q01DX009 (ip), vehicle: saline with Tween-80) 104 % of control; (dose: 200.0 mg/kg/injection, schedule: Q01DX009 (ip), vehicle: Klucel (hydroxypropylcellulose) (HPC)) 200 % of control; (dose: 400.0 mg/kg/injection, schedule: Q04DX002 (ip), vehicle: Klucel (hydroxypropylcellulose) (HPC)) 190 % of control.
For the compound `COc1ccc2nc3cc(Cl)ccc3c(Cl)c2c1`, the T/C runs as follows: under setting [2], 95 % of control; under setting [3], 109 % of control; under setting [4], 95 % of control; under setting [5], 100 % of control; under setting [6], 95 % of control; under setting [7], 109 % of control.
In the case of `COc1ccc2c(c1O)-c1c(OC)c(OC)cc3c1C(C2)N(C)CC3` (stereo unspecified), the T/C reads like this: (dose: 5.0 mg/kg/injection, schedule: Q01DX010 (ip), vehicle: saline) 100 % of control; (dose: 10.0 mg/kg/injection, schedule: Q01DX010 (ip), vehicle: saline) 95 % of control; (dose: 20.0 mg/kg/injection, schedule: Q01DX010 (ip), vehicle: saline) 100 % of control; (dose: 40.0 mg/kg/injection, schedule: Q01DX010 (ip), vehicle: saline) 100 % of control.
Regarding `CC[C@H]1OC(=O)[C@H](C)[C@@H](OC2CC(C)(OC)C(OC(=O)CCCC(=O)O)C(C)O2)[C@H](C)[C@@H](OC2OC(C)CC(N(C)C)C2O)[C@](C)(O)C[C@@H](C)C(=O)[C@H](C)[C@@H](O)[C@]1(C)O` (stereo partly specified), the T/C reads like this: (dose: 7.5 mg/kg/injection, schedule: Q01DX009 (ip), vehicle: Klucel (hydroxypropylcellulose) (HPC)) 111 % of control; (dose: 15.0 mg/kg/injection, schedule: Q01DX009 (ip), vehicle: Klucel (hydroxypropylcellulose) (HPC)) 101 % of control; (dose: 30.0 mg/kg/injection, schedule: Q01DX009 (ip), vehicle: Klucel (hydroxypropylcellulose) (HPC)) 97 % of control; (dose: 60.0 mg/kg/injection, schedule: Q01DX009 (ip), vehicle: Klucel (hydroxypropylcellulose) (HPC)) 111 % of control.
With `C/C=C/CCCCCCCC(=O)OCCCC`, the T/C is 109 % of control under setting [2]; 110 % of control under setting [3]; 95 % of control under setting [4]; 105 % of control under setting [5]; 113 % of control under setting [6]; 120 % of control under setting [7].
As to `O=C(CBr)c1ccc(/C=C/c2ccc(Cl)cc2)cc1`, the T/C is, setting by setting: (dose: 50.0 mg/kg/injection, schedule: Q01DX009 (ip), vehicle: saline with Tween-80) 95 % of control; under setting [1], 109 % of control; under setting [2], 120 % of control; under setting [3], 109 % of control.
